Laboratory results reported in paper PMC11596392, “Enhanced Antibacterial, Anti-Inflammatory, and Antibiofilm Activities of Tryptophan-Substituted Peptides Derived from Cecropin A-Melittin Hybrid Peptide BP100” (Molecules, 2024).
Read-outs that look alike come from different tables or passages of the source. Where no end group is shown, it is not given here.

Experiments:
[1] = system: E. coli (KCTC 1682); assay type: cell-based, Escherichia coli; conditions: 10% Human Serum
[2] = system: sheep red blood cells (sRBCs); experiment: Hemolytic activity assay; assay type: cell-based; conditions: 4% (v/v) sheep red blood cells in PBS, 1 h, 37 °C; 1 to 256 μM tested
Protocol: To assess toxicity in mammalian cells, we evaluated the hemolytic activity of the peptides on sheep red blood cells (sRBCs). […] The therapeutic index (TI), a measure commonly employed to evaluate the cell selectivity of antibacterial agents, was calculated as the ratio of the concentration causing 10% hemolysis of sRBCs (HC10) to the GM [19, 20, 21, 22].
The hemolytic activity of the peptides was tested through hemolysis assay of sheep red blood cells (sRBCs). The sRBCs were diluted in PBS to achieve a 4% (v/v) concentration. Subsequently, 100 μL of peptide solutions, ranging from 1 to 256 μM, was dispensed into a 96-well plate containing an equal volume of the erythrocyte suspension. After incubating for 1 h at 37 °C and centrifuging at 1000× g for 10 min, 100 μL of the supernatant was transferred to a new 96-well plate. Hemoglobin release was quantified using a microplate reader at a wavelength of […]. The percentage of hemolysis was calculated using percentage hemolysis = 100 × [[…]], where A represents the absorbance of the peptide-treated sample at 540 nm, A0 corresponds to the absorbance value representing 0% hemolysis in PBS, and At corresponds to the absorbance value representing 100% hemolysis in 0.1% Triton X-100.

[3] = system: S. aureus (KCTC 1621); assay type: cell-based, Staphylococcus aureus
Protocol: (§1) To comprehensively evaluate the therapeutic potential of BP100 and the five selected analogs, we assessed their capacity to maintain antibacterial activity in the presence of physiological salts and serum (Table 4). Antibacterial assays were conducted in an environment supplemented with either […] fresh human serum or physiological salts. […] This enhanced stability in physiologically relevant conditions may have important implications for the potential therapeutic applications of these peptide analogs.
(§2) The minimal inhibitory concentrations (MICs) of the peptides against bacterial strains were determined using a modified broth-microdilution method in accordance with the National Committee for Clinical Laboratory Standards (NCCLS) guidelines. Overnight cultures were diluted in cation-adjusted Mueller–Hinton Broth (MHB) to achieve an inoculum density of 2 × 10^6 CFU/mL. A two-fold serial dilution of the peptide solution (100 μL) was introduced into microtiter plates, followed by the addition of 100 μL of bacterial suspension. The plates were then incubated at 37 °C for 24 h to determine the MICs. Wells containing only culture media served as negative controls, while those with added bacteria functioned as positive controls. The MIC, expressed in μM, was defined as the lowest peptide concentration that prevented visible bacterial growth. This protocol was also employed to determine MICs in the presence of physiological salts (150 mM of NaCl, 4.5 mM of KCl, 6 μM of NH4Cl, 1 mM of MgCl2, 2.5 mM of CaCl2, and 4 μM of FeCl3) and 20% human serum to assess the peptides’ efficacy under conditions more closely resembling physiological environments. All experiments were conducted in triplicate and repeated three times independently to ensure reproducibility and statistical significance of the results.

[4] = system: S. typhimurium (KCTC 1926); assay type: cell-based, Salmonella typhimurium; conditions: broth microdilution in MHB, 37 °C, 24 h, 100% inhibition of growth
Protocol: (§3) The antibacterial efficacy of the synthesized peptides was evaluated by determining the minimal inhibitory concentrations (MICs) against six standard bacterial strains and five drug-resistant bacterial strains using the Clinical and Laboratory Standards Institute (CLSI) microdilution method. Melittin served as the positive control.
as §2

[5] = system: VREF (ATCC 51559); assay type: cell-based, vancomycin-resistant Enterococcus faecium; conditions: broth microdilution in MHB, 37 °C, 24 h, 100% inhibition of growth
Protocol: as §3, §2

[6] = system: B. subtilis (KCTC 3068); assay type: cell-based, Bacillus subtilis; conditions: broth microdilution in MHB, 37 °C, 24 h, 100% inhibition of growth
Protocol: as §3, §2

[7] = system: E. coli (KCTC 1682); assay type: cell-based, Escherichia coli
Protocol: as §1, §2

[8] = system: S. epidermidis (KCTC 1917); assay type: cell-based, Staphylococcus epidermidis; conditions: broth microdilution in MHB, 37 °C, 24 h, 100% inhibition of growth
Protocol: as §3, §2

Row | Substance | MIC [1] [µM] | HC10 (peptide concentration that caused 10% hemolysis) [2] [µM] | MIC ([3]; 4 μM of FeCl3) [µM] | MIC ([3]; 6 μM of NH4Cl) [µM] | MIC ([3]; 1 mM of MgCl2) [µM] | MIC ([3]; 2.5 mM of CaCl2) [µM] | MIC ([3]; 4.5 mM of KCl) [µM] | MIC ([3]; 150 mM of NaCl) [µM] | MIC ([3]; Control, absence of salts) [µM] | Minimal Inhibitory Concentration (MIC) [4] [µM] | Minimal Inhibitory Concentration (MIC) [5] [µM] | Minimal Inhibitory Concentration (MIC) [6] [µM] | MIC ([7]; 4 μM of FeCl3) [µM] | MIC ([7]; 6 μM of NH4Cl) [µM] | MIC ([7]; 1 mM of MgCl2) [µM] | MIC ([7]; 2.5 mM of CaCl2) [µM] | MIC ([7]; 4.5 mM of KCl) [µM] | MIC ([7]; 150 mM of NaCl) [µM] | MIC ([7]; Control, absence of salts) [µM] | Minimal Inhibitory Concentration (MIC) [8] [µM]
1 | KKWFKKWLKWL-NH2 [BP13] | 16 | >256 | 8 | 8 | 8 | 8 | 8 | 8 | 4 | 8 | 16 | 8 | 8 | 8 | 8 | 16 | 8 | 16 | 8 | 8
2 | KKWWKKILKYL-NH2 [BP5] | 4 | >256 | 4 | 4 | 4 | 4 | 4 | 4 | 2 | 2 | 8 | 2 | 8 | 4 | 4 | 8 | 4 | 8 | 2 | 1
